Legend:
A. baumannii = assay: Resistance serial passage assay; type: cell-based, Acinetobacter baumannii; conditions: 8 passages, concentration doubled each day
Procedure: (§1) ESKAPE pathogens were grown overnight in liquid media at 37° C. These cultures were then diluted 1:100 in fresh media, and seeded into a 96-well plate. Lead bis-cyclic guanidines or control agents were added to respective wells at half MIC concentrations. Plates were then incubated for 24 hours at 37° C., with bacteria removed from these cultures on the following day, to inoculate fresh media (1:100 dilution) containing compounds at a 2-fold higher concentrations. These were then grown overnight, and the procedure repeated for a total of eight days. […] Each experiment was performed in triplicate, yielding identical results.

E. faecium = assay: Resistance serial passage assay; type: cell-based, Enterococcus faecium; conditions: 8 passages, concentration doubled each day
Procedure: as §1

## CN(C)[C@@H]1C(O)=C(C(N)=O)C(=O)[C@@]2(O)C(O)=C3C(=O)c4c(O)cccc4[C@@](C)(O)[C@H]3C[C@@H]12 [tetracycline, reference compound]
A. baumannii
  increase in MIC after serial passage: 128 fold
E. faecium
  increase in MIC after serial passage: 128 fold

— patent US20170065564A1, “BIS-CYCLIC GUANIDINE COMPOUND COMPOSITIONS, METHODS OF USE AND TREATMENT THEREOF” (University of South Florida, priority 2014, published 2017)
